Data: paper PMC7580722, “Design of new disubstituted imidazo[1,2-b]pyridazine derivatives as selective Haspin inhibitors. Synthesis, binding mode and anticancer biological evaluation” (Journal of Enzyme Inhibition and Medicinal Chemistry, 2020)
Where two headings read alike, the source gives them in different places. Blank lines part the entries; values can stand above or below the compound they belong to.

Columns and labels:
[1] = test system: Haspin; set-up: method as in PMID 23071153, PMID 23071152, PMID 21804608, PMID 19734450, PMID 18978305; conditions: Figure 1, known Haspin inhibitors; cited from earlier work
[2] = molecular target: T1, HsHaspin (Homo sapiens, UniProt Q8TF76); assay: Recombinant Haspin kinase assay ([γ-33P]ATP, 15 µM ATP; some values ADP-Glo); assay type: biochemical; conditions: for IC50 / Haspin inhibitory activity (in words): recombinant HsHaspin; for IC50: in vitro
T1 construct: aa470-798; made in house; host or cells: E. coli
T1 sequence (Q8TF76 470-798): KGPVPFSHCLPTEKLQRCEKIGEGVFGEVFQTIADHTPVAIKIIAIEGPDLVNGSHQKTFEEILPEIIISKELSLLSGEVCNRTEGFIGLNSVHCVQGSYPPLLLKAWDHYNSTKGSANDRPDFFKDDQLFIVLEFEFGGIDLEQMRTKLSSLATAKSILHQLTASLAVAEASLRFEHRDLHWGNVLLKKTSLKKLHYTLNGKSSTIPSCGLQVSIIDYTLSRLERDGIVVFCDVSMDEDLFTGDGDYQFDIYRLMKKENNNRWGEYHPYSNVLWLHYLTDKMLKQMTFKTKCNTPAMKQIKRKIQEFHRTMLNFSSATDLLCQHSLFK
Protocol: (§1) Values are IC50 expressed in µM and calculated from dose–response curves (each point on the curves was performed in triplicate). Selectivity indexes (SI; in brackets) are calculated as follows: SI = IC50 kinase X/IC50 Haspin. ND: not determined. *IC50 values obtained using the ADP-Glo methodology (see Experimental section, Supplementary Material). […]
(§2) A, HsCdk9/Cyclin T). Native SscCK1δ /ε and SscGSK3α/β were purified from pig brain whereas HsPlk1, HsCdk1 and HsAurora B were purchased from ProQinase and SignalChem respectively. Kinase assays were performed in […]
(§3) mCi/ml; PerkinElmer) in a final volume of 30 µl as previously reported 51. After 30 min incubation at 30°C, the reaction mix was spotted onto GE healthcare P81 phosphocellulose paper using a FilterMate Harvester (PerkinElmer), and the filter was extensively washed with a 1% phosphoric acid solution. The wet filter-bound radioactivity was determined in the presence of 20 µl scintillation fluid (GE healthcare) with a TopCount® Scintillation and Luminescence Counter (PerkinElmer). IC50 values were calculated from dose-response curves […]
(§4) Kinase activities using the ADP-Glo methodology (ADP-Glo Kinase Assay; Promega) were assayed according to the assay described in Nguyen et al. 52 and Ibrahim et al. 53. […]

[3] = test system: HCT116; assay: Cell viability, monolayer (2D), MTS assay; assay type: cell-based; conditions: Homo sapiens, HCT-116, 48 h
[4] = test system: HCT116 spheroids; assay: Spheroid (3D) viability, CellTiter-Glo; assay type: cell-based, human; conditions: 5 µM, 10 days, Figure 4(A)
[5] = molecular target: T2, HsPLK1 (Homo sapiens, UniProt P53350); assay: PLK1 kinase assay; assay type: biochemical; conditions: Table 4
T2 construct: purchased ProQinase
T2 sequence (P53350 whole entry): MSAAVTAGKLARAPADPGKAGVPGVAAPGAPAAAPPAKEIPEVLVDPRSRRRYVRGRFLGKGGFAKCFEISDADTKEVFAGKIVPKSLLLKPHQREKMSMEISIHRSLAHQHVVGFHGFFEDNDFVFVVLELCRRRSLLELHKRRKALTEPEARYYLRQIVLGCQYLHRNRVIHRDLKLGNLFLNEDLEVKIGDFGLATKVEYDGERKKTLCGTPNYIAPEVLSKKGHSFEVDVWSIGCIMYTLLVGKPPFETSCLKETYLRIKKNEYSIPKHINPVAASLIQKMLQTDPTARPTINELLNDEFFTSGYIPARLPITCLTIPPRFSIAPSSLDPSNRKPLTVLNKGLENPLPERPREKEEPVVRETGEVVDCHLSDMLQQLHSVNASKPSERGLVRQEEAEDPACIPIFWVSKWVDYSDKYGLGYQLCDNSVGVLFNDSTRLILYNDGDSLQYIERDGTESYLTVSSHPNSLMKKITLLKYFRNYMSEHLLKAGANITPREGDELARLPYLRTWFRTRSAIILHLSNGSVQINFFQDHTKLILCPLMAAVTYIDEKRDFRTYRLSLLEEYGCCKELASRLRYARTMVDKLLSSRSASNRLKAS
Protocol: . We therefore tested our compounds on two obvious candidates, HsCDK1 and HsPLK1 (Polo-like_kinase 1) both required for mitotic entry[50] (Table 4).
(§5) Values are IC50 expressed in µM and calculated from dose–response curves (each point from the curves was performed in duplicate). NR: not relevant. […]
(§6) Recombinant protein kinases were expressed and purified from E. coli (HsHaspin kinase domain aa470-798, HsCdk5/p25, RnDYRK1A kinase domain aa1-499, HsPIM1, MmCLK1) or baculovirus/Sf9 cells (HsCdk2/Cyclin A, HsCdk9/Cyclin T). Native SscCK1δ /ε and SscGSK3α/β were purified from pig brain whereas HsPlk1, HsCdk1 and HsAurora B were purchased from ProQinase and SignalChem respectively. Kinase assays were performed in specific buffers and substrates for each kinase tested in the presence of 15 µM [γ-33P] ATP (3,000 Ci/mmol, 10 mCi/ml; PerkinElmer) in a final volume of 30 µl as previously reported 51. After 30 min incubation at 30°C, the reaction mix was spotted onto GE healthcare P81 phosphocellulose paper using a FilterMate Harvester (PerkinElmer), and the filter was extensively washed with a 1% phosphoric acid solution. The wet filter-bound radioactivity was determined in the presence of 20 µl scintillation fluid (GE healthcare) with a TopCount® Scintillation and Luminescence Counter (PerkinElmer). IC50 values were calculated from dose-response curves

[6] = molecular target: T3, HsCDK1 (Homo sapiens, UniProt P06493); assay: CDK1 kinase assay; assay type: biochemical; conditions: for SI CDK1/Haspin: SI = IC50 CDK1/IC50 Haspin; for IC50: Table 4, read-out: IC50 HsCDK1
T3 construct: purchased ProQinase
T3 sequence (P06493 whole entry): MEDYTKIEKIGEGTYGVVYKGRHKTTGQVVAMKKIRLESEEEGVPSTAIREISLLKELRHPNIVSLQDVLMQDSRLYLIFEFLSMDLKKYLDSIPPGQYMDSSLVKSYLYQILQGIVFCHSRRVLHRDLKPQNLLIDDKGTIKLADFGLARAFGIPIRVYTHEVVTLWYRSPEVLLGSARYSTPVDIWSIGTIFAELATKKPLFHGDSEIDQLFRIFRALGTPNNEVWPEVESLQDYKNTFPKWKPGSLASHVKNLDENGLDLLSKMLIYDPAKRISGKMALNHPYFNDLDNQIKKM
T3 sequence (P14635 whole entry partner): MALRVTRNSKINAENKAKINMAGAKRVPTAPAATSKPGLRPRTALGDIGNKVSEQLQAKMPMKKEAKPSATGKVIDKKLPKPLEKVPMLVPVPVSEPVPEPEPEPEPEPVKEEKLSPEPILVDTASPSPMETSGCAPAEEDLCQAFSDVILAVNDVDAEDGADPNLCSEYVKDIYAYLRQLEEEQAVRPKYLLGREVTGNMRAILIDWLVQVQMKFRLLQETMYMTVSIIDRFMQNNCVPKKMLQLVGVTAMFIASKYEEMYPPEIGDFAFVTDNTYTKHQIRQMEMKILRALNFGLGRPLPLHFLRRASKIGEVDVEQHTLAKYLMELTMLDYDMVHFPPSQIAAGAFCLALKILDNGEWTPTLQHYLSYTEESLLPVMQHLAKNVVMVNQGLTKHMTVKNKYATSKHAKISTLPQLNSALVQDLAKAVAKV
Protocol: We therefore tested our compounds on two obvious candidates, HsCDK1 and HsPLK1 (Polo-like_kinase 1) both required for mitotic entry[50]
as §5, §6

[7] = molecular target: T4, HsAurora B (Homo sapiens, UniProt Q96GD4); assay: Aurora B kinase assay; assay type: biochemical
T4 construct: purchased SignalChem
T4 sequence (Q96GD4 whole entry): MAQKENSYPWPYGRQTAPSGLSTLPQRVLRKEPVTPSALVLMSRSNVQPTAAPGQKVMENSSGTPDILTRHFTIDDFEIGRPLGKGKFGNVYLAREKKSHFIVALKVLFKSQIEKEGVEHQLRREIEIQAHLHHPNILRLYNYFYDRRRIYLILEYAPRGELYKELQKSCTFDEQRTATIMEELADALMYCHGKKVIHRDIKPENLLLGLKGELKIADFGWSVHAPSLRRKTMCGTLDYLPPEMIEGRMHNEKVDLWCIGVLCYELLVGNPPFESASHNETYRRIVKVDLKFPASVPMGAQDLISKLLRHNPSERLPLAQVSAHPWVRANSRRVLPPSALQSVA
Protocol: as §1
as §6, with “curves […]” for “curves”
as §4

[8] = test system: Haspin activity (H3T3ph) in U-2 OS cells; assay: In-cell Haspin activity, H3T3ph immunofluorescence; assay type: cell-based, human; conditions: 24 h; for H3T3ph signal remaining in prometaphase cells (% of ctrl): 0.5 µM
[9] = test system: HBL100; assay: Cell viability, monolayer (2D), MTS assay; assay type: cell-based; conditions: Homo sapiens, HBL-100, 48 h
[10] = test system: HBL100 spheroids; assay: Spheroid (3D) viability, CellTiter-Glo; assay type: cell-based, human; conditions: Figure 4(A)
[11] = test system: U-2 OS; assay: Cell viability, monolayer (2D), MTS assay; assay type: cell-based; conditions: Homo sapiens, U2OS, 48 h
[12] = test system: SH-SY5Y; assay: Cell viability, monolayer (2D), MTS assay; assay type: cell-based; conditions: Homo sapiens, 48 h
[13] = test system: U-2 OS cells; assay: Scratch wound cell migration assay (IncuCyte); assay type: cell-based, human; conditions: 0.6 µM, 0.5% FBS, normalised against DMSO control (100%)
[14] = test system: RPE-1; assay: Cell viability, monolayer (2D), MTS assay; assay type: cell-based; conditions: Homo sapiens, 48 h
[15] = test system: U-2 OS cells; assay: Cell cycle analysis by flow cytometry (propidium iodide); conditions: 2.5 µM, 24 h, U-2 OS
[16] = test system: U-2 OS spheroids; assay: Spheroid (3D) viability, CellTiter-Glo; assay type: cell-based, human; conditions: 5 µM; for viability at 5 µM: Homo sapiens, U2OS
[17] = molecular target: T5, HsCdk2/Cyclin A (Homo sapiens, UniProt P24941); assay: CDK2 kinase assay; assay type: biochemical; conditions: read-out: IC50 CDK2
T5 construct: made in house; host or cells: baculovirus/Sf9 cells
Protocol: as §1, §2, §3, §4

Compound: c1cc2[nH]ncc2cc1-c1cnc2ccc(N3CCCCC3)nn12 [Compound 11]
melting point: 231 to 233 °C

Compound: CCCNc1ccc2ncc(-c3cnc(N)nc3)n2n1 [Compound 28, 3-(2-Aminopyrimidin-5-yl)-6-(propylamino)imidazo[1,2-b]pyridazine]
Aurora B inhibition at 10 µM (in words) [7]: did not affect this enzyme at 10 µM

Compound: CCCNc1ccc2ncc(-c3cccc4ccccc34)n2n1 [Compound 29, 3-(Naphthalen-1-yl)-N-propylimidazo[1,2-b]pyridazin-6-amine]
EC50 [3]: > 10 µM
IC50 [5]: > 10 µM
IC50 [6]: > 10 µM
EC50 [9]: > 10 µM
EC50 [11]: > 10 µM
EC50 [12]: > 10 µM
normalised wound closure after 24 h [13]: around 100%
EC50 [14]: > 10 µM

Compound: c1cnn2c(-c3ccc4[nH]ncc4c3)cnc2c1 [Compound 30, 3-(1H-Indazol-5-yl)imidazo[1,2-b]pyridazine]
Aurora B inhibition at 10 µM (in words) [7]: did not affect this enzyme at 10 µM
Haspin inhibitory activity (in words) [2]: lost their activity for Haspin

Compound: COc1ccc2c(c1)[nH]c1c(C)nccc12 [Harmine]
IC50 [1]: 0.59 µM

Compound: COc1ccc2c3ccnc(C(F)(F)F)c3n(CCCCN)c2c1 [LDN-211898]
IC50 [1]: 0.1 µM

Compound: CN1CCC(CNc2ccc3ncc(-c4cccc(OC(F)(F)F)c4)n3n2)CC1 [SGI-1776]
IC50 [1]: 0.034 µM

More lines, main results first:

melting point: 195 to 197 °C
IC50 [2]: 0.031 µM
Compound: c1cc2[nH]ncc2cc1-c1cnc2ccc(NC3CCCC3)nn12 [Compound 9]

melting point: 240 to 242 °C
Compound: c1cc2[nH]ncc2cc1-c1cnc2ccc(NC3CCCCC3)nn12 [Compound 10]

melting point: 198 to 200 °C
Compound: CCCOc1ccc2ncc(-c3ccc4[nH]ncc4c3)n2n1 [Compound 13]

melting point: 205 to 207 °C
EC50 [3]: 1.7 µM
IC50 [5]: > 10 µM
SI CDK1/Haspin [6]: 11.5
IC50 [6]: 0.795 µM
Aurora B inhibition (in words) [7]: did not inhibit Aurora B kinase
average SI ([2]; average selectivity index over the protein kinases tested vs Haspin): 23.6
IC50 [2]: 0.069 µM
EC50 [12]: > 10 µM
Compound: CCOc1ccc2ncc(-c3ccc4[nH]ncc4c3)n2n1 [Compound 14]
HCT116 spheroid viability [4]: remained mostly unresponsive
H3T3ph signal remaining in prometaphase cells (% of ctrl) [8]: 11.9%
EC50 [9]: 9.5 µM
HBL100 spheroid viability ([10]; 5 µM, 10 days): remained mostly unresponsive
viability at 5 µM ([10]; Homo sapiens, HBL-100, 48 h, read-out: HBL-100 spheroid viability (% of DMSO control)): 73%
EC50 [11]: 2.8 µM
normalised wound closure after 24 h [13]: 73%
EC50 [14]: 3.7 µM
cells in G2/M phase (% of cell total population) ([15]; DMSO control 12.8%): 24.4%
cells in S phase (% of cell total population) ([15]; DMSO control 51.9%): 45.2%
viability at 5 µM ([16]; 48 h, 2 days, Figure 4(B), read-out: U-2 OS spheroid remaining viability): 6.9%
viability at 5 µM ([16]; 240 h, 10 days, Figure 4(A), read-out: U-2 OS spheroid viability (% of DMSO control)): 5%
viability at 5 µM ([16]; 48 h, Figure 4(A), read-out: U-2 OS spheroid viability (% of DMSO control)): 33%

EC50 [3]: > 10 µM
IC50 [17]: 5.3 µM
IC50 [5]: > 10 µM
SI CDK1/Haspin [6]: 239
IC50 [6]: 2.87 µM
IC50 [2]: 0.012 µM
EC50 [12]: > 10 µM
Compound: c1cc2[nH]ncc2cc1-c1cnc2ccc(OC[C@H]3CNCCO3)nn12 [Compound 22]
H3T3ph signal remaining in prometaphase cells (% of ctrl) [8]: 10.7%
inhibition at 0.05 µM ([8]; Homo sapiens, U2OS, 0.05 µM, read-out: inhibition of cellular Haspin activity): > 80%
EC50 [9]: > 10 µM
EC50 [11]: 8.6 µM
normalised wound closure after 24 h [13]: around 100%
EC50 [14]: 6 µM
U-2 OS spheroid remaining viability ([16]; 2 days, Figure 4(B)): no effects

IC50 [2]: 0.025 µM
Compound: c1cc2[nH]ncc2cc1-c1cnc2ccc(OC[C@@H]3COCCN3)nn12 [Compound 23]

IC50 [2]: 0.02 µM
Compound: c1cc2[nH]ncc2cc1-c1cnc2ccc(OC[C@H]3COCCN3)nn12 [Compound 24]

Haspin inhibitory activity (in words) [2]: very active
Compound: c1cc2[nH]ncc2cc1-c1cnc2ccc(OCC3CCCN3)nn12 (stereo not shown) [Compound 25]

Haspin inhibitory activity (in words) [2]: very active
Compound: c1cc2[nH]ncc2cc1-c1cnc2ccc(OCC3CCCN3)nn12 (stereo not shown) [Compound 26]
